This passage reports IC50 and solubility results from patent US9657057B2, “Dipeptide and tripeptide epoxy ketone protease inhibitors” (Onyx Therapeutics, Inc., priority 2013, dated 2017).

Converted amounts (≈) assume the structure as drawn. Read-outs that look alike come from different tables or passages of the source.

Data set [1] deals with T1, LMP2 (Homo sapiens, UniProt P28065+P40306).
T1 construct: endogenous in cells; host or cells: MOLT-4
The experiment in a line: ProCISE proteasome subunit assay, LMP2. The data set is classed as biochemical. How it is done:
(§1) This assay was used to assess the inhibitory activity against each of LMP2, LMP7, MECL1, β1, β2, and β5. Briefly, test compounds were serially diluted in DMSO at 100× concentration, then diluted to 10× in aqueous hypotonic lysis buffer. Lysate from the human acute lymphoblastic leukemia cell line, MOLT-4, was treated for 1 hour at 25° C. with compound at a final 1× concentration. […] Following this, lysate was denatured in guanidine hydrochloride, and subunits bound to probe were isolated with streptavidin-conjugated sepharose beads. Individual subunits were probed with subunit-specific primary antibodies, followed by HRP-conjugated secondary antibodies. A chemiluminescent substrate was used to generate signal associated with HRP binding, which was detected on a plate reader. Luminescent signal was normalized to protein content, then, percent activity calculated relative to DMSO-treated controls to generate IC50 curves.

Data set [2] concerns the target MECL1 (Homo sapiens, UniProt P40306+P49720). The data set can be described thus: ProCISE proteasome subunit assay, MECL1. The data set is classed as biochemical. Conditions: MOLT-4 lysate, 1 hour at 25° C. The procedure: as §1
The target of data set [3] is β1 (Homo sapiens, UniProt P28072+Q99436). The data set can be described thus: ProCISE proteasome subunit assay, β1. Conditions: MOLT-4 lysate, 1 hour at 25° C. It is filed as biochemical. The procedure:
as §1

For data set [4], the target named is β2 (Homo sapiens, UniProt P49720+Q99436). The experiment in a line: ProCISE proteasome subunit assay, β2. The data set is classed as biochemical. Conditions: MOLT-4 lysate, 1 hour at 25° C. How it is done: as §1
Data set [5] has as its target T2, LMP7 (Homo sapiens, UniProt P20618+P28062).
T2 construct: endogenous in cells; host or cells: MOLT-4
The experiment in a line: ProCISE proteasome subunit assay, LMP7. The data set is classed as biochemical. Conditions: MOLT4 lysate Hu 1 h. Summed up: (§2)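 MOLT-4 cell lysate was incubated with compound for 1 h at 25° C, then a subunit-binding probe was applied; probe-bound subunits were pulled down on streptavidin beads after guanidine denaturation and detected with subunit-specific antibodies by HRP chemiluminescence. Signal was normalized to protein and expressed as percent of DMSO control to fit IC50.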

In data set [6] the target is T3, β5 (Homo sapiens, UniProt P20618+P28074).
T3 construct: endogenous in cells; host or cells: MOLT-4
The experiment in a line: ProCISE proteasome subunit assay, β5. It is filed as biochemical. Conditions: MOLT4 lysate Hu 1 h. Summed up: as §2

The target in data set [7] is i20S (20S immunoproteasome) (Homo sapiens, UniProt P20618+P28062). The experiment in a line: 20S proteasome assay, chymotrypsin-like activity (LLVY), i20S. The data set is classed as biochemical. Conditions: LLVY i20S Hu 1 h CONT: IC50 (nM), succinyl-Leu-Leu-Val-Tyr-AMC. An excerpt: (§3) Assay buffer consisted of TE buffer [20 mmol/L Tris (pH 8.0), 0.5 mmol/L EDTA] with (20S) or without (cell lysate) 0.03% SDS. Reactions were initiated by enzyme or lysate addition and monitored for AMC product formation at 27jC with a plate-based spectofluorometer (Tecan).

Data set [8] concerns the target c20S (constitutive 20S proteasome) (Homo sapiens, UniProt P20618+P28074). The data set can be described thus: 20S proteasome assay, chymotrypsin-like activity (LLVY), c20S. Conditions: LLVY c20S Hu 1 h CONT: IC50 (nM), succinyl-Leu-Leu-Val-Tyr-AMC. It is filed as biochemical.
Source text: as §3

A short description of data set [9]: Solubility pH 7. It is filed as physicochemical. Conditions: pH 7, aqueous buffer.
[10] abbreviates: ProCISE LMP2 MOLT4 lysate Hu 1 h CONT: IC50 (nM), MOLT4 lysate Hu 1 h.

Take `COc1ccc(C[C@H](NC(=O)c2cccc(=O)[nH]2)C(=O)N[C@@H](Cc2ccccc2)C(=O)[C@@]2(C)CO2)cc1` [Compound C-3008, N—((S)-3-(4-Methoxyphenyl)-1-(((S)-1-((R)-2-methyloxiran-2-yl)-1-oxo-3-phenylpropan-2-yl)amino)-1-oxopropan-2-yl)-6-oxo-1,6-dihydropyridine-2-carboxamide]: the IC50 was 109 nM in [1] (setting [10]); 109 nM in data set [1] (ProCISE, MOLT-4 lysate, 1 hour at 25° C., read-out: LMP2); more than 250 µM in data set [2]; 99.2 µM in [3]; more than 250 µM in data set [4].

`COc1ccc(C[C@H](NC(=O)[C@H]2CCCC(=O)N2)C(=O)N[C@@H](Cc2ccccc2)C(=O)[C@@]2(C)CO2)cc1` [Compound C-3009, (R)—N—((S)-3-(4-Methoxyphenyl)-1-(((S)-1-((R)-2-methyloxiran-2-yl)-1-oxo-3-phenylpropan-2-yl)amino)-1-oxopropan-2-yl)-6-oxopiperidine-2-carboxamide]: the IC50 in [1] (MOLT4 lysate Hu 1 h) was determined as 517 nM; in data set [5] it was 4.57 µM; in data set [6] it was 8.29 µM; in data set [7], 9890 nM; in data set [8] it was 87800 nM.

In the case of `COc1ccc(C[C@H](NC(=O)[C@@](C)(O)C(F)(F)F)C(=O)N[C@@H](Cc2ccccc2)C(=O)[C@@]2(C)CO2)cc1` [Compound C-3007, (R)-3,3,3-Trifluoro-2-hydroxy-N—((S)-3-(4-methoxyphenyl)-1-(((S)-1-((R)-2-methyloxiran-2-yl)-1-oxo-3-phenylpropan-2-yl)amino)-1-oxopropan-2-yl)-2-methylpropanamide], the IC50 worked out at 274 nM in [1] (MOLT4 lysate Hu 1 h), 3.46 µM in data set [5] and 9.84 µM in data set [6]. In [9], this compound had a solubility of 0.0867 mg/mL (≈ 166 µM).

For the compound `COc1ccc(C[C@H](NC(=O)[C@@H](C)NC(=O)c2ncc[nH]2)C(=O)N[C@@H](CC2CCCC2)C(=O)[C@@]2(C)CO2)cc1` [Compound C-2034, N—((R)-1-(((S)-1-(((S)-3-cyclopentyl-1-((R)-2-methyloxiran-2-yl)-1-oxopropan-2-yl)amino)-3-(4-methoxyphenyl)-1-oxopropan-2-yl)amino)-1-oxopropan-2-yl)-1H-imidazole-2-carboxamide], the IC50 is 471 nM in data set [1] (MOLT4 lysate Hu 1 h); 19.7 µM in data set [5]; more than 250 µM in [6]; 19500 nM in data set [7]; 64400 nM in data set [8]. The compound also displayed a solubility in data set [9] of 0.0555 mg/mL (≈ 103 µM).

`COc1ccc(C[C@H](NC(=O)c2cccc(=O)[nH]2)C(=O)N[C@@H](CC2=CCCC2)C(=O)[C@@]2(C)CO2)cc1` [Compound C-3015, N—((S)-1-(((S)-3-(Cyclopent-1-en-1-yl)-1-((R)-2-methyloxiran-2-yl)-1-oxopropan-2-yl)amino)-3-(4-methoxyphenyl)-1-oxopropan-2-yl)-6-oxo-1,6-dihydropyridine-2-carboxamide] showed an IC50 in [1] (MOLT4 lysate Hu 1 h) of 37.6 nM. In addition, in data set [9], the concentration in solution (solubility) was 0.143 mg/mL (≈ 291 µM).

In [1] (setting [10]), `C[C@]1(C(=O)[C@H](Cc2ccccc2)NC(=O)[C@H](CO)NC(=O)c2cccc(=O)[nH]2)CO1` [Compound C-3017, N—((S)-3-Hydroxy-1-(((S)-1-((R)-2-methyloxiran-2-yl)-1-oxo-3-phenylpropan-2-yl)amino)-1-oxopropan-2-yl)-6-oxo-1,6-dihydropyridine-2-carboxamide] returned an IC50 of 33 nM. Moreover, in data set [9], the solubility turned out to be 6.64 mg/mL (≈ 16100 µM).

Regarding `COc1ccc(C[C@H](NC(=O)c2ccnc(N3CCOCC3)n2)C(=O)N[C@@H](Cc2ccccc2)C(=O)[C@@]2(C)CO2)cc1` [Compound C-3001], the IC50 in data set [1] (MOLT4 lysate Hu 1 h) was found to be 526 nM; in data set [5] it was 4.77 µM; in data set [6], 5.59 µM.
